Data: patent US20180256495A1 (MEDRx Co., Ltd., priority 2008, published 2018)
Read-outs that look alike come from different tables or passages of the source.

Key:
[1] = cited from earlier work; for logP (Log P of organic acid, Calculated) / logP of organic acid (calc.) / Log P of organic acid (calc.): organic acid itself; for logP (calc.): basic drug itself, value published in PubMed; for log P: lipid solubility of the named drug or organic acid itself
[2] = State of the liquid preparation (precipitation, homogeneity, solubility or dispersion of the salt)
[3] = Evaluation test of transdermal absorbability (skin penetrability) with a Franz diffusion cell; format: in vitro ADME; details: free basic drug, liquid preparation 2 w/w %, rat skin, 32° C.
[4] = stated in brackets in the synthesis examples; cited from earlier work
[5] = wrapped cell, full remark: tendency of salt to be divided into two layers

Row | SMILES | logP (Log P of organic acid, Calculated) ([1]; value from PubMed) | Log P of organic acid (calc.) ([1]; value from PubMed) | Penetrated Amount (amount of skin-penetrated drug during 3 hours) [3] [μg/cm^2] | logP of organic acid (calc.) ([1]; value from PubMed) | also measured
1 | CCCCC(CC)C(=O)O (stereo not drawn) [2-ethylhexanoic acid] | 2.7 | – | – | – | –
2 | CC(O)CC(=O)O (stereo not drawn) [3-hydroxybutyric acid] | −0.5 | – | – | – | –
3 | CC(O)C(=O)O.CCN(CC)CC(=O)Nc1c(C)cccc1C [Lactic acid salt of lidocaine, lactic acid salt of lidocaine] | – | – | – | – | Remarks, Test Example 7: 2% liquid preparation (solvent system) ([2]; wrapped cell, full remark: homogeneously dispersed solution): homogeneously; Remarks, Example 13: 20% viscous liquid preparation (liquid paraffin) [2, 5]: tendency of salt to; Remarks, Example 14: 20% viscous liquid preparation (solvent + liquid paraffin) [2, 5]: tendency of salt to
4 | CC(=O)NCC(=O)O [N-acetylglycine] | – | −3.1 | – | – | logP of organic acid (calc.) [1]: −3.1
5 | CC(=O)Oc1ccccc1C(=O)O [acetylsalicylic acid] | 1.4 | – | – | – | –
6 | CN(C)CCC=C1c2ccccc2CCc2ccccc21 [amitriptyline, reference compound] | – | – | 7 | – | logP (calc.) [1]: 4.9; log P [1]: 4.9
7 | CCc1ccc(C(=O)C(C)CN2CCCCC2)cc1 (stereo not drawn) [eperisone, reference compound] | – | – | 14 | – | logP (calc.) [1]: 3.6
8 | CN(C)CCCN1c2ccccc2CCc2ccccc21 [imipramine] | – | – | 10 | – | –
9 | CC(C)CCCCCCCCCCCCCCC(=O)O [isostearic acid] | 7 | 7 | – | 7 | logP of organic acid (calc.) [1]: 7
10 | CC(=O)CCC(=O)O [levulinic acid] | −0.4 | −0.4 | – | −0.4 | logP of organic acid (calc.) [1]: −0.4
11 | COCC(=O)O [methoxyacetic acid] | −0.6 | −0.6 | – | −0.6 | logP of organic acid (calc.) [1]: −0.6; Remarks (state of the liquid preparation) ([2]; morphine 2 w/w % liquid preparation with the row's acid, wrapped cell 'small amount of' + 'precipitation' = small amount of white precipitation remained): homogeneous solution
12 | CCCCCCCC(=O)O [octanoic acid] | – | 3 | – | 3 | logP of organic acid (calc.) [1]: 3
13 | O=C(O)c1ccc(O)cc1 [p-hydroxybenzoic acid] | 1.2 | – | – | – | –
14 | CC(C)=CCN1CCC2(C)c3cc(O)ccc3CC1C2C (stereo not drawn) [pentazocine, reference compound] | – | – | 40 | – | logP (calc.) [1]: 3.7; log P [1]: 3.7; pKa [4]: 8.0
15 | CCC(=O)O [propionic acid] | – | 0.2 | – | 0.2 | –
16 | O=C(O)c1ccccc1O [salicylic acid] | 2.4 | 2.4 | – | 2.4 | –
17 | Cc1ccc(C(=O)C(C)CN2CCCCC2)cc1 (stereo not drawn) [tolperisone, reference compound] | – | – | 26 | – | logP (calc.) [1]: 3.1
18 | COc1cccc(C2(O)CCCCC2CN(C)C)c1 (stereo not drawn) [tramadol, reference compound] | – | – | 122 | – | logP (calc.) [1]: 2.4; log P [1]: 2.4
